From the supplement of paper PMC10307832

Columns and labels:
Experiment in all cases: relative viability (nuclei count vs DMSO), 5 days (fraction); higher = more cells survive
Vorinostat + Tozasertib = compound: O=C(CCCCCCC(=O)Nc1ccccc1)NO [Vorinostat] + Cc1cc(Nc2cc(N3CCN(C)CC3)nc(Sc3ccc(NC(=O)C4CC4)cc3)n2)n[nH]1 [Tozasertib] (partner 0.1 µM)
Outline: (§1)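 Lung cancer cell lines were seeded in 1536-well plates and dosed by pin tool the next day, with either a single drug or a fixed anchor-drug dose combined with five library-drug doses (not always all listed) spaced in √10 steps. Five days later, one step fixed the cells and stained their nuclei (final 0.05% Triton X-100, 1% formaldehyde, 1 ug/ml Hoechst), and nuclei were counted on 4× images. Relative viability is the nuclei count in treated wells divided by the count in vehicle wells, and each value is the median of duplicate plates.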

Vorinostat + Foretinib = compound: O=C(CCCCCCC(=O)Nc1ccccc1)NO [Vorinostat] + COc1cc2c(Oc3ccc(NC(=O)C4(C(=O)Nc5ccc(F)cc5)CC4)cc3F)ccnc2cc1OCCCN1CCOCC1 [Foretinib] (partner 0.25 µM)
Outline: as §1

Vorinostat + Pemetrexed = compound: O=C(CCCCCCC(=O)Nc1ccccc1)NO [Vorinostat] + Nc1nc2[nH]cc(CCc3ccc(C(=O)N[C@@H](CCC(=O)O)C(=O)O)cc3)c2c(=O)[nH]1 [Pemetrexed] (partner 0.2 µM)
Outline: as §1

Vorinostat + Trametinib = compound: O=C(CCCCCCC(=O)Nc1ccccc1)NO [Vorinostat] + CC(=O)Nc1cccc(-n2c(=O)n(C3CC3)c(=O)c3c(Nc4ccc(I)cc4F)n(C)c(=O)c(C)c32)c1 [Trametinib] (partner 0.02 µM)
Outline: as §1

Vorinostat + Bortezomib = compound: O=C(CCCCCCC(=O)Nc1ccccc1)NO [Vorinostat] + CC(C)C[C@H](NC(=O)[C@H](Cc1ccccc1)NC(=O)c1cnccn1)B(O)O [Bortezomib] (partner 0.002 µM)
Outline: as §1

| Cell Line | relative viability (Vorinostat + Tozasertib; first compound 0.253 µM) | relative viability (Vorinostat + Tozasertib; first compound 0.8 µM) | relative viability (Vorinostat + Tozasertib; first compound 2.53 µM) | relative viability (Vorinostat + Tozasertib; first compound 8 µM) | relative viability (Vorinostat + Foretinib; first compound 0.253 µM) | relative viability (Vorinostat + Foretinib; first compound 0.8 µM) | relative viability (Vorinostat + Foretinib; first compound 2.53 µM) | relative viability (Vorinostat + Foretinib; first compound 8 µM) | relative viability (Vorinostat + Pemetrexed; first compound 0.253 µM) | relative viability (Vorinostat + Pemetrexed; first compound 0.8 µM) | relative viability (Vorinostat + Pemetrexed; first compound 2.53 µM) | relative viability (Vorinostat + Pemetrexed; first compound 8 µM) | relative viability (Vorinostat + Trametinib; first compound 0.253 µM) | relative viability (Vorinostat + Trametinib; first compound 0.8 µM) | relative viability (Vorinostat + Trametinib; first compound 2.53 µM) | relative viability (Vorinostat + Trametinib; first compound 8 µM) | relative viability (Vorinostat + Bortezomib; first compound 0.253 µM) | relative viability (Vorinostat + Bortezomib; first compound 0.8 µM) | relative viability (Vorinostat + Bortezomib; first compound 2.53 µM) | relative viability (Vorinostat + Bortezomib; first compound 8 µM) |
| --- | --- | --- | --- | --- | --- | --- | --- | --- | --- | --- | --- | --- | --- | --- | --- | --- | --- | --- | --- | --- |
| HCC-827 | 0.5 | 0.454 | 0.236 | 0.135 | 1.07 | 1.02 | 0.55 | 0.174 | 0.269 | 0.278 | 0.212 | 0.153 | 0.712 | 0.642 | 0.351 | 0.163 | 1.03 | 1.11 | 0.913 | 0.451 |
| HCC-78 | 0.384 | 0.268 | 0.167 | 0.2 | 0.683 | 0.448 | 0.221 | 0.221 | 0.888 | 0.852 | 0.875 | 0.868 | 0.774 | 0.495 | 0.201 | 0.181 | 0.495 | 0.265 | 0.119 | 0.126 |
| 201T | 0.742 | 0.534 | 0.334 | 0.203 | 1.25 | 0.983 | 0.511 | 0.165 | 0.327 | 0.323 | 0.253 | 0.25 | 0.734 | 0.735 | 0.69 | 0.267 | 1.11 | 1.1 | 1.1 | 0.641 |
| LK-2 | 0.179 | 0.178 | 0.157 | 0.125 | 1.03 | 0.896 | 0.28 | 0.137 | 0.278 | 0.262 | 0.138 | 0.036 | 0.893 | 0.496 | 0.167 | 0.0907 |  |  |  |  |
| NCI-H2342 | 0.436 | 0.322 | 0.335 | 0.262 | 0.975 | 1.07 | 0.587 | 0.385 | 0.834 | 0.832 | 0.68 | 0.306 | 0.703 | 0.774 | 0.685 | 0.484 |  |  |  |  |
| HCC-366 | 0.0967 | 0.0579 | 0.033 | 0.031 | 1.03 | 0.333 | 0.0524 | 0.0624 | 0.169 | 0.174 | 0.0867 | 0.0396 | 0.412 | 0.333 | 0.062 | 0.0267 | 1.09 | 0.872 | 0.0664 | 0.0198 |
| HARA | 0.139 | 0.104 | 0.0618 | 0.0739 | 0.965 | 0.495 | 0.151 | 0.0596 | 0.239 | 0.217 | 0.205 | 0.125 | 1.06 | 0.576 | 0.18 | 0.0921 | 1.1 | 0.928 | 0.149 | 0.0288 |
| COR-L 105 | 0.458 | 0.331 | 0.245 | 0.213 | 1.27 | 0.996 | 0.915 | 0.246 | 1.21 | 1.25 | 0.7 | 0.281 | 0.546 | 0.542 | 0.343 | 0.288 | 1.3 | 0.617 | 0.292 | 0.267 |
| NCI-H460 | 0.593 | 0.0486 | 0.0314 | 0.0259 | 1.09 | 0.927 | 0.0567 | 0.0329 | 0.0729 | 0.064 | 0.0548 | 0.0231 | 0.231 | 0.0799 | 0.0298 | 0.0227 | 1.12 | 0.783 | 0.0198 | 0.0125 |
| HCC-44 | 1.1 | 0.296 | 0.184 | 0.141 |  |  |  |  | 0.663 | 0.683 | 0.628 | 0.485 | 1.11 | 0.968 | 0.91 | 0.286 | 0.886 | 0.883 | 0.514 | 0.109 |
| NCI-H1563 |  |  |  |  | 0.999 | 0.833 | 0.574 | 0.52 | 0.877 | 0.651 | 0.708 | 0.384 |  |  |  |  | 0.977 | 0.778 | 0.579 | 0.503 |
| NCI-H1650 | 0.478 | 0.293 | 0.168 | 0.152 | 1.1 | 1 | 0.648 | 0.14 | 0.307 | 0.341 | 0.29 | 0.18 | 0.609 | 0.542 | 0.175 | 0.0883 | 0.22 | 0.178 | 0.179 | 0.142 |
| NCI-H727 | 0.545 | 0.56 | 0.315 | 0.362 | 0.855 | 0.821 | 0.378 | 0.329 |  |  |  |  | 0.369 | 0.392 | 0.27 | 0.267 | 0.928 | 0.613 | 0.324 | 0.233 |
| COR-L23 | 0.19 | 0.0976 | 0.105 | 0.0594 | 1.02 | 0.671 | 0.152 | 0.0834 | 0.2 | 0.182 | 0.148 | 0.12 | 0.79 | 0.447 | 0.159 | 0.0825 | 0.985 | 0.683 | 0.131 | 0.0488 |
| NCI-H522 | 0.644 | 0.457 | 0.302 | 0.141 |  |  |  |  | 1.22 | 1.05 | 1.01 | 0.262 | 0.93 | 0.706 | 0.707 | 0.263 |  |  |  |  |
| NCI-H596 | 0.839 | 0.819 | 0.378 | 0.183 | 0.847 | 0.715 | 0.53 | 0.22 | 0.503 | 0.465 | 0.412 | 0.346 | 0.876 | 0.632 | 0.426 | 0.235 | 0.942 | 0.693 | 0.663 | 0.258 |
| NCI-H1993 | 0.633 | 0.608 | 0.489 | 0.457 | 0.84 | 0.801 | 0.747 | 0.494 | 0.594 | 0.492 | 0.503 | 0.344 | 0.649 | 0.61 | 0.548 | 0.36 | 1.17 | 1.13 | 0.461 | 0.411 |
